Source: patent US20230085307A1, “PYRIDAZINONE COMPOUND AND HERBICIDE” (NISSAN CHEMICAL CORPORATION, priority 2019, published 2023)

Experiments:
green foxtail [1] = assay: Test Example 5: herbicidal effect by foliage application, plastic box (Table 20, symbol G); type: in vivo, green foxtail (Setaria viridis); conditions: foliage application, AAH 320 g/ha, evaluated three weeks after application
Summary of the method: (§1)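 Plants sown in sterilized diluvial soil and grown 14 days in a greenhouse at 25° C to 30° C, then sprayed on the foliage with the compound's emulsion diluted in water to a predetermined herbicide amount. Injury to weeds and crops scored three weeks after application on a visual rating scale.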

green foxtail [2] = assay: Test Example 4: herbicidal effect by soil treatment (Table 19, symbol G); type: in vivo, green foxtail (Setaria viridis); conditions: amount of applied herbicide 320 g/ha
Summary of the method: (§2)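 Three weeks of greenhouse growth at 25° C. to 30° C. followed a uniform surface spray of water-diluted emulsion at a predetermined herbicide amount. Seeds had been sown beforehand under about 1.5 cm of sterilized diluvial soil. Grading followed criteria set out in an earlier test.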

late watergrass = assay: Test Example 1: herbicidal activity, application before weed generation under submerged conditions (Table 16, symbol A); type: in vivo, late watergrass (Echinochloa oryzicola); conditions: amount of applied herbicide 320 g/ha
Summary of the method: (§3)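 Alluvial soil was flooded to 4 cm depth, weed seeds were sown mixed and 2.5-leaf rice seedlings were transplanted. On sowing day, the compound's emulsion, diluted in water to a set dose, was applied to the water surface. Plants grew at 25–30 °C and were scored 0–5 after three weeks.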

southern crabgrass [3] = assay: Test Example 5: herbicidal effect by foliage application, plastic box (Table 20, symbol F); type: in vivo, southern crabgrass (Digitaria ciliaris); conditions: foliage application, AAH 320 g/ha, evaluated three weeks after application
Summary of the method: as §1

blackgrass [4] = assay: Test Example 5: herbicidal effect by foliage application, plastic box (Table 20, symbol J); type: in vivo, blackgrass (Alopecurus myosuroides); conditions: foliage application, AAH 320 g/ha, evaluated three weeks after application
Summary of the method: as §1

oval-leafed pondweed = assay: Test Example 1: herbicidal activity, application before weed generation under submerged conditions (Table 16, symbol C); type: in vivo, oval-leafed pondweed (Monochoria vaginalis); conditions: amount of applied herbicide 320 g/ha
Summary of the method: as §3

Chinese sprangletop = assay: Test Example 3: herbicidal effect by foliage application, Wagner pot (Table 18, symbol D); type: in vivo, chinese sprangletop (Leptochloa chinensis); conditions: amount of applied herbicide 320 g/ha
Summary of the method: (§4)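 Plants were sown in alluvial soil held under 0.1–0.5 cm standing water and grown 14 days in a greenhouse at 25–30 °C. An emulsifiable formulation, water-diluted to the set dose, was then sprayed onto the foliage, and effects were scored three weeks later using previously defined criteria.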

rice flat sedge = assay: Test Example 3: herbicidal effect by foliage application, Wagner pot (Table 18, symbol E); type: in vivo, rice flat sedge (Cyperus iria); conditions: amount of applied herbicide 320 g/ha
Summary of the method: as §4

Japanese bulrush = assay: Test Example 1: herbicidal activity, application before weed generation under submerged conditions (Table 16, symbol B); type: in vivo, Japanese bulrush (Schoenoplectus juncoides); conditions: amount of applied herbicide 320 g/ha
Summary of the method: as §3

chickweed [5] = assay: Test Example 5: herbicidal effect by foliage application, plastic box (Table 20, symbol P); type: in vivo, common chickweed (Stellaria media); conditions: foliage application, AAH 320 g/ha, evaluated three weeks after application
Summary of the method: as §1

blackgrass [6] = assay: Test Example 4: herbicidal effect by soil treatment (Table 19, symbol J); type: in vivo, blackgrass (Alopecurus myosuroides); conditions: amount of applied herbicide 320 g/ha
Summary of the method: as §2

windgrass [7] = assay: Test Example 5: herbicidal effect by foliage application, plastic box (Table 20, symbol L); type: in vivo, windgrass (Apera spica-venti); conditions: foliage application, AAH 320 g/ha, evaluated three weeks after application
Summary of the method: as §1

windgrass [8] = assay: Test Example 4: herbicidal effect by soil treatment (Table 19, symbol L); type: in vivo, windgrass (Apera spica-venti); conditions: amount of applied herbicide 320 g/ha
Summary of the method: as §2

redroot pigweed [9] = assay: Test Example 5: herbicidal effect by foliage application, plastic box (Table 20, symbol N); type: in vivo, redroot pigweed (Amaranthus retroflexus); conditions: foliage application, AAH 320 g/ha, evaluated three weeks after application
Summary of the method: as §1

persian speedwell [10] = assay: Test Example 5: herbicidal effect by foliage application, plastic box (Table 20, symbol R); type: in vivo, Persian speedwell (Veronica persica); conditions: foliage application, AAH 320 g/ha, evaluated three weeks after application
Summary of the method: as §1

barnyard grass [11] = assay: Test Example 4: herbicidal effect by soil treatment (Table 19, symbol H); type: in vivo, barnyard grass (Echinochloa crus-galli); conditions: amount of applied herbicide 320 g/ha
Summary of the method: as §2

wild oat [12] = assay: Test Example 5: herbicidal effect by foliage application, plastic box (Table 20, symbol I); type: in vivo, wild oat (Avena fatua); conditions: foliage application, AAH 320 g/ha, evaluated three weeks after application
Summary of the method: as §1

lambsquarters [13] = assay: Test Example 4: herbicidal effect by soil treatment (Table 19, symbol O); type: in vivo, lambsquarters (Chenopodium album); conditions: amount of applied herbicide 320 g/ha
Summary of the method: as §2

persian speedwell [14] = assay: Test Example 4: herbicidal effect by soil treatment (Table 19, symbol R); type: in vivo, Persian speedwell (Veronica persica); conditions: amount of applied herbicide 320 g/ha
Summary of the method: as §2

barnyard grass [15] = assay: Test Example 5: herbicidal effect by foliage application, plastic box (Table 20, symbol H); type: in vivo, barnyard grass (Echinochloa crus-galli); conditions: foliage application, AAH 320 g/ha, evaluated three weeks after application
Summary of the method: as §1

southern crabgrass [16] = assay: Test Example 4: herbicidal effect by soil treatment (Table 19, symbol F); type: in vivo, southern crabgrass (Digitaria ciliaris); conditions: amount of applied herbicide 320 g/ha
Summary of the method: as §2

barnyard grass [17] = assay: Test Example 3: herbicidal effect by foliage application, Wagner pot (Table 18, symbol H); type: in vivo, barnyard grass (Echinochloa crus-galli); conditions: amount of applied herbicide 320 g/ha
Summary of the method: as §4

wild oat [18] = assay: Test Example 4: herbicidal effect by soil treatment (Table 19, symbol I); type: in vivo, wild oat (Avena fatua); conditions: amount of applied herbicide 320 g/ha
Summary of the method: as §2

chickweed [19] = assay: Test Example 4: herbicidal effect by soil treatment (Table 19, symbol P); type: in vivo, common chickweed (Stellaria media); conditions: amount of applied herbicide 320 g/ha
Summary of the method: as §2

lambsquarters [20] = assay: Test Example 5: herbicidal effect by foliage application, plastic box (Table 20, symbol O); type: in vivo, lambsquarters (Chenopodium album); conditions: foliage application, AAH 320 g/ha, evaluated three weeks after application
Summary of the method: as §1

Italian ryegrass [21] = assay: Test Example 4: herbicidal effect by soil treatment (Table 19, symbol K); type: in vivo, Italian ryegrass (Lolium multiflorum); conditions: amount of applied herbicide 320 g/ha
Summary of the method: as §2

Italian ryegrass [22] = assay: Test Example 5: herbicidal effect by foliage application, plastic box (Table 20, symbol K); type: in vivo, Italian ryegrass (Lolium multiflorum); conditions: foliage application, AAH 320 g/ha, evaluated three weeks after application
Summary of the method: as §1

velvetleaf [23] = assay: Test Example 5: herbicidal effect by foliage application, plastic box (Table 20, symbol M); type: in vivo, velvetleaf (Abutilon theophrasti); conditions: foliage application, AAH 320 g/ha, evaluated three weeks after application
Summary of the method: as §1

redroot pigweed [24] = assay: Test Example 4: herbicidal effect by soil treatment (Table 19, symbol N); type: in vivo, redroot pigweed (Amaranthus retroflexus); conditions: amount of applied herbicide 320 g/ha
Summary of the method: as §2

velvetleaf [25] = assay: Test Example 4: herbicidal effect by soil treatment (Table 19, symbol M); type: in vivo, velvetleaf (Abutilon theophrasti); conditions: amount of applied herbicide 320 g/ha
Summary of the method: as §2

SMILES | G: green foxtail, herbicidal effect (criteria 0-5) (green foxtail [1]) | herbicidal effect, G: green foxtail (green foxtail [2]) | Herbicidal effect, A: late watergrass (late watergrass) | F: southern crabgrass, herbicidal effect (criteria 0-5) (southern crabgrass [3]) | J: blackgrass, herbicidal effect (criteria 0-5) (blackgrass [4]) | Herbicidal effect, C: oval-leafed pondweed (oval-leafed pondweed) | herbicidal effect on D: Chinese sprangletop (Chinese sprangletop) | herbicidal effect on E: rice flat sedge (rice flat sedge) | Herbicidal effect, B: Japanese bulrush (Japanese bulrush) | P: chickweed, herbicidal effect (criteria 0-5) (chickweed [5]) | herbicidal effect, J: blackgrass (blackgrass [6]) | L: windgrass, herbicidal effect (criteria 0-5) (windgrass [7]) | herbicidal effect, L: windgrass (windgrass [8]) | N: redroot pigweed, herbicidal effect (criteria 0-5) (redroot pigweed [9]) | R: persian speedwell, herbicidal effect (criteria 0-5) (persian speedwell [10]) | herbicidal effect, H: barnyard grass (barnyard grass [11]) | I: wild oat, herbicidal effect (criteria 0-5) (wild oat [12]) | herbicidal effect, O: lambsquarters (lambsquarters [13]) | herbicidal effect, R: persian speedwell (persian speedwell [14]) | H: barnyard grass, herbicidal effect (criteria 0-5) (barnyard grass [15]) | further results
CCCC(=O)Oc1c(C)nn(C)c(=O)c1-c1c(-c2cnccc2C(F)(F)F)sc2ccc(F)cc12 [2-388] | 3 (Herbicidal rate of 40% or more and less than 70%) | 0 (Herbicidal rate of 5% or less (almost no effect)) | 5 (Herbicidal rate of 90% or more (almost completely withered)) | 1 (Herbicidal rate of 5% or more and less than 20%) | 1 (Herbicidal rate of 5% or more and less than 20%) | 0 (Herbicidal rate of 5% or less (almost no effect)) | 3 (Herbicidal rate of 40% or more and less than 70%) | 3 (Herbicidal rate of 40% or more and less than 70%) | 0 (Herbicidal rate of 5% or less (almost no effect)) | 5 (Herbicidal rate of 90% or more (almost completely withered)) | 0 (Herbicidal rate of 5% or less (almost no effect)) | 4 (Herbicidal rate of 70% or more and less than 90%) | 0 (Herbicidal rate of 5% or less (almost no effect)) | 4 (Herbicidal rate of 70% or more and less than 90%) | 5 (Herbicidal rate of 90% or more (almost completely withered)) | 3 (Herbicidal rate of 40% or more and less than 70%) | 3 (Herbicidal rate of 40% or more and less than 70%) | 2 (Herbicidal rate of 20% or more and less than 40%) | 5 (Herbicidal rate of 90% or more (almost completely withered)) | 4 (Herbicidal rate of 70% or more and less than 90%) | herbicidal effect, F: southern crabgrass (southern crabgrass [16]): 0 (Herbicidal rate of 5% or less (almost no effect)); herbicidal effect on H: barnyard grass (barnyard grass [17]): 5 (Herbicidal rate of 90% or more (almost completely withered)); herbicidal effect, I: wild oat (wild oat [18]): 0 (Herbicidal rate of 5% or less (almost no effect)); herbicidal effect, P: chickweed (chickweed [19]): 5 (Herbicidal rate of 90% or more (almost completely withered)); O: lambsquarters, herbicidal effect (criteria 0-5) (lambsquarters [20]): 4 (Herbicidal rate of 70% or more and less than 90%); herbicidal effect, K: Italian ryegrass (Italian ryegrass [21]): 0 (Herbicidal rate of 5% or less (almost no effect)); K: Italian ryegrass, herbicidal effect (criteria 0-5) (Italian ryegrass [22]): 3 (Herbicidal rate of 40% or more and less than 70%); M: velvetleaf, herbicidal effect (criteria 0-5) (velvetleaf [23]): 5 (Herbicidal rate of 90% or more (almost completely withered)); herbicidal effect, N: redroot pigweed (redroot pigweed [24]): 1 (Herbicidal rate of 5% or more and less than 20%); herbicidal effect, M: velvetleaf (velvetleaf [25]): 0 (Herbicidal rate of 5% or less (almost no effect))
CSc1ccncc1-c1sc2ccc(F)cc2c1-c1c(O)c(C)nn(C)c1=O [2-389] | 5 (Herbicidal rate of 90% or more (almost completely withered)) | 3 (Herbicidal rate of 40% or more and less than 70%) | 3 (Herbicidal rate of 40% or more and less than 70%) | 5 (Herbicidal rate of 90% or more (almost completely withered)) | 3 (Herbicidal rate of 40% or more and less than 70%) | 0 (Herbicidal rate of 5% or less (almost no effect)) | 3 (Herbicidal rate of 40% or more and less than 70%) | 5 (Herbicidal rate of 90% or more (almost completely withered)) | 0 (Herbicidal rate of 5% or less (almost no effect)) | 5 (Herbicidal rate of 90% or more (almost completely withered)) | 0 (Herbicidal rate of 5% or less (almost no effect)) | 4 (Herbicidal rate of 70% or more and less than 90%) | 1 (Herbicidal rate of 5% or more and less than 20%) | 5 (Herbicidal rate of 90% or more (almost completely withered)) | 5 (Herbicidal rate of 90% or more (almost completely withered)) | 3 (Herbicidal rate of 40% or more and less than 70%) | 4 (Herbicidal rate of 70% or more and less than 90%) | 5 (Herbicidal rate of 90% or more (almost completely withered)) | 5 (Herbicidal rate of 90% or more (almost completely withered)) | 5 (Herbicidal rate of 90% or more (almost completely withered)) | herbicidal effect, F: southern crabgrass (southern crabgrass [16]): 1 (Herbicidal rate of 5% or more and less than 20%); herbicidal effect on H: barnyard grass (barnyard grass [17]): 5 (Herbicidal rate of 90% or more (almost completely withered)); herbicidal effect, I: wild oat (wild oat [18]): 1 (Herbicidal rate of 5% or more and less than 20%); herbicidal effect, P: chickweed (chickweed [19]): 4 (Herbicidal rate of 70% or more and less than 90%); O: lambsquarters, herbicidal effect (criteria 0-5) (lambsquarters [20]): 5 (Herbicidal rate of 90% or more (almost completely withered)); herbicidal effect, K: Italian ryegrass (Italian ryegrass [21]): 3 (Herbicidal rate of 40% or more and less than 70%); K: Italian ryegrass, herbicidal effect (criteria 0-5) (Italian ryegrass [22]): 4 (Herbicidal rate of 70% or more and less than 90%); M: velvetleaf, herbicidal effect (criteria 0-5) (velvetleaf [23]): 5 (Herbicidal rate of 90% or more (almost completely withered)); herbicidal effect, N: redroot pigweed (redroot pigweed [24]): 5 (Herbicidal rate of 90% or more (almost completely withered)); herbicidal effect, M: velvetleaf (velvetleaf [25]): 3 (Herbicidal rate of 40% or more and less than 70%)
